Key:
[1] = (§1) Cytotoxic concentration against hepatitis C virus; assay type: functional, Hepacivirus hominis
[2] = target: T1, RNA-directed RNA polymerase (Hepacivirus hominis, UniProt O39930); assay: Inhibitory concentration against NS5B polymerase of Hepatitis C virus; n=1
[3] = target: T1, RNA-directed RNA polymerase; assay: Inhibitory activity against RNA dependent RNA polymerase nonstructural protein 5B in hepatitis C virus; n=1
Hepatitis C virus [4] = assay: as §1; assay type: functional, Hepacivirus hominis
[5] = target: T1, RNA-directed RNA polymerase; assay: Effective concentration to inhibit the activity of RNA dependent RNA polymerase nonstructural protein 5B in hepatitis C virus; n=1
Hepatitis C virus [6] = assay: Effective concentration to inhibit RNA replication in hepatitis C virus; assay type: functional, organism-based, Hepacivirus hominis
[7] = target: T1, RNA-directed RNA polymerase; assay: Inhibitory concentration against RNA dependent RNA polymerase nonstructural protein 5B of hepatitis C virus
[8] = Half life after administration of 20 mg/kg in dog; assay type: ADME, organism-based, Canis lupus familiaris; parameters: dose 20 mg/kg; conditions: in vivo
[9] = Total clearance after administration of 20 mg/kg in dog; assay type: ADME, organism-based, Canis lupus familiaris; parameters: dose 20 mg/kg; conditions: in vivo
Hepacivirus hominis = assay: Concentration to inhibit hepatitis C virus replication by 85%; assay type: functional

T1 sequence (O39930 whole entry): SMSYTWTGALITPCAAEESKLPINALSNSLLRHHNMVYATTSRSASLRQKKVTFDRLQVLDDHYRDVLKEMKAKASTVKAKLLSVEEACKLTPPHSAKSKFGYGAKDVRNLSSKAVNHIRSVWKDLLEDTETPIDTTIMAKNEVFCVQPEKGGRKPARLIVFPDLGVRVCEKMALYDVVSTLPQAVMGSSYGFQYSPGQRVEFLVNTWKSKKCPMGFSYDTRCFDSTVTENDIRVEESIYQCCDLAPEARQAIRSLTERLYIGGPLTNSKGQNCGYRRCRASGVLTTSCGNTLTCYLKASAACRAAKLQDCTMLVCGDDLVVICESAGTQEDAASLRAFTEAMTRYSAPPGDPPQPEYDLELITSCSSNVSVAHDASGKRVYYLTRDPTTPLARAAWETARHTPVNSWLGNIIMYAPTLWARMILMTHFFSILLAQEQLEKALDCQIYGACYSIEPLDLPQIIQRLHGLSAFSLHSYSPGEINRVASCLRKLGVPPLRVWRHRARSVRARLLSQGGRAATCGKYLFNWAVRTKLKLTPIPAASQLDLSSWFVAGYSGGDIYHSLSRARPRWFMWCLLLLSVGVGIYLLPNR

Row | IC50 [3] | SMILES | CC50 [1] | other results
1 |  | CN(C)C(=O)Cn1c(-c2ccc(Cl)cc2)c(C2CCCCC2)c2ccc(C(=O)O)cc21 | > 50000 nM | IC50 [2]: 15 nM
2 | 111 nM | O=C(O)c1ccc2c(C3CCCCC3)c(-c3ccccc3)n(CCN3CCOCC3)c2c1 |  | 
3 | 11 nM | Cc1ccc(-c2c(C3CCCCC3)c3ccc(C(=O)O)cc3n2CC(=O)N2CCOCC2)cc1 |  | CC50 (Hepatitis C virus [4]): > 50000 nM; EC50 [5]: 300 nM
4 |  | O=C(O)c1ccc2c(c1)nc(-c1ccc(OCc3cc(C(=O)N4CCC(O)CC4)ccc3-c3ccc(Cl)cc3)cc1F)n2C1CCCCC1 |  | EC50 (Hepatitis C virus [6]): 500 nM; IC50 [7]: < 6 nM
5 | 40 nM | CN(C)C(=O)Cn1c(-c2cccc(Cl)c2)c(C2CCCCC2)c2ccc(C(=O)O)cc21 | > 50000 nM | 
6 | 26 nM | O=C(O)c1ccc2c(C3CCCCC3)c(-c3ccccc3)n(CC(=O)N3CCOCC3)c2c1 | > 50000 nM | 
7 |  | O=C(O)c1ccc2c(c1)nc(-c1ccc(O)cc1F)n2C1CCCCC1 |  | IC50 [7]: 1.4 nM
8 | 37 nM | O=C(O)c1ccc2c(C3CCCCC3)c(-c3ccccc3)n(Cc3ccccc3)c2c1 |  | 
9 | 45 nM | CS(=O)(=O)NC(=O)Cn1c(-c2ccccc2)c(C2CCCCC2)c2ccc(C(=O)O)cc21 |  | 
10 |  | O=C(O)c1ccc2c(C3CCCCC3)c(-c3ccc(O)cc3)[nH]c2c1 |  | IC50 [7]: 4.8 nM
11 | 18 nM | CN(C)C(=O)Cn1c(-c2cccc(F)c2)c(C2CCCCC2)c2ccc(C(=O)O)cc21 | > 50000 nM | 
12 | 17 nM | Cc1ccc(-c2c(C3CCCCC3)c3ccc(C(=O)O)cc3n2CC(=O)N(C)C)cc1 | > 50000 nM | 
13 |  | O=C(O)c1ccc2c(c1)nc(-c1ccc(O)cc1)n2C1CCCCC1 |  | IC50 [7]: 3 nM
14 | 48 nM | O=C(O)c1ccc2c(C3CCCCC3)c(-c3ccccc3)[nH]c2c1 |  | 
15 | 372 nM | CN(C)C(=O)Cn1c(-c2ccccc2Cl)c(C2CCCCC2)c2ccc(C(=O)O)cc21 | > 50000 nM | 
16 | 18 nM | COc1ccc(-c2c(C3CCCCC3)c3ccc(C(=O)O)cc3n2CC(=O)N(C)C)cc1 | > 50000 nM | 
17 | 28 nM | Cn1c(-c2ccccc2)c(C2CCCCC2)c2ccc(C(=O)O)cc21 |  | 
18 | 485 nM | O=C(O)c1ccc2c(C3CCCCC3)c(-c3ccccc3)n(S(=O)(=O)c3ccccc3)c2c1 |  | 
19 | 59 nM | CN(C)C(=O)Cn1c(-c2ccccc2)c(C2CCCCC2)c2ccc(C(=O)O)cc21 | > 50000 nM | half-life [8]: 4.8 h; clearance [9]: 3 mL/min/kg
20 | 6 nM | CN(C)C(=O)Cn1c(-c2ccc(OCc3ccccc3)cc2)c(C2CCCCC2)c2ccc(C(=O)O)cc21 | > 50000 nM | Concentration (Hepacivirus hominis): 0.3 µM
21 |  | O=C(O)c1ccc2c(c1)cc(-c1ccc(O)cc1)n2C1CCCCC1 |  | IC50 [7]: 340 nM
